According to patent US20230165861A1, “USE FOR PROTECTING OR MITIGATING RADIATION DAMAGE, AND FOR PREVENTING OR TREATING PULMONARY FIBROSIS” (KOREA INSTITUTE OF RADIOLOGICAL & MEDICAL SCIENCES, priority 2017, published 2023):

Columns and labels:
[1] = tested on: lung tissue of a mouse animal model irradiated with 90 Gy; assay: Inhibition test on tissue damage caused by radiation (H&E staining of lung tissue); type: in vivo; settings: 10 mg/kg intraperitoneally one hour before 90 Gy chest irradiation; two weeks after irradiation; compared to non-treatment group (IR)
Procedure: The tissue of a mouse was fixed with 10% neutral formalin for one day, and a paraffin section was made. In order to remove the paraffin around the tissue, the tissue was allowed to react with a xylene solution and 95%, 90%, and 70% ethanol solutions in sequential order for 5 minutes each, and then immersed in a hematoxylin solution for 1 minute to stain the nuclei and then washed under running water for 10 minutes. Thereafter, the cytoplasm was stained by immersing the tissue in an eosin solution for 30 seconds. Thereafter, the tissue was immersed in 50%, 70%, 90%, and 95% ethanol solutions, and a xylene solution in sequential order, followed by dropping one drop of a mounting solution. Then, the tissue was covered with a cover slide and observed under a microscope (Carl Zeiss Vision). The lung tissue of a mouse animal model, in which the chest of the mouse was irradiated in a size of 3 mm with an intensity of 90 Gy, was fixed with 10% formalin, and a paraffin section was made. Thereafter, tissue inflammatory response and fibrosis were identified by using a hematoxylin and eosin staining method. Upon observing the tissue with this staining method, the cell nucleus is observed in blue and the cytoplasm in pink. One hour before irradiating the mouse animal model, 10 mg/kg of Dacomitinib was administered intraperitoneally. […]

[2] = tested on: vascular wall in the lung tissue of a mouse animal model irradiated with 90 Gy; assay: Inhibition test on in vivo vascular damage caused by radiation (vascular wall thickness, H&E staining); settings: 10 mg/kg intraperitoneally one hour before 90 Gy chest irradiation; two weeks after irradiation; compared to non-treatment group (IR)
Procedure: The tissue of a mouse was fixed with 10% neutral formalin for one day, and a paraffin section was made. In order to remove the paraffin around the tissue, the tissue was allowed to react with a xylene solution and 95%, 90%, and 70% ethanol solutions in sequential order for 5 minutes each, and then immersed in a hematoxylin solution for 1 minute to stain the nuclei and then washed under running water for 10 minutes. Thereafter, the cytoplasm was stained by immersing the tissue in an eosin solution for 30 seconds. Thereafter, the tissue was immersed in 50%, 70%, 90%, and 95% ethanol solutions, and a xylene solution in sequential order, followed by dropping one drop of a mounting solution. Then, the tissue was covered with a cover slide and observed under a microscope (Carl Zeiss Vision). The lung tissue of a mouse animal model, in which the chest of the mouse was irradiated in a size of 3 mm with an intensity of 90 Gy, was fixed with 10% formalin, and a paraffin section was made. Thereafter, the tissue was stained with hematoxylin and eosin. Upon observing the tissue with this staining method, the cell nucleus is observed in blue and the cytoplasm in pink. One hour before irradiating the mouse animal model, 10 mg/kg of Dacomitinib was administered intraperitoneally. […]

[3] = tested on: pulmonary vascular endothelial cells of irradiated lung; assay: Pulmonary fibrosis inhibition test in experimental animal model (trichrome staining of collagen); type: in vivo, C57BL/6 mouse; settings: 10 mg/kg intraperitoneally one hour before 90 Gy lung irradiation; inner wall of the aorta of lung tissue; compared to irradiation group (IR)
Procedure: The tissue of a mouse was fixed with 10% neutral formalin for one day, and a paraffin section was made. In order to remove paraffin around the tissue, the tissue was allowed to react with a xylene solution and 95%, 90%, and 70% ethanol solutions in sequential order for 5 minutes each. For the antigen activation of the tissue, the tissue was immersed in a 0.1 M citric acid solution (pH 6.0) and then boiled for 20 minutes. Subsequently, the tissue was allowed to react with a Bouin's solution for 1 minute, Weigert's hematoxylin for 10 minutes, phoshotunstic/phosphomolydic acid for 10 minutes, aniline blue for 5 minutes, and 1% acetic acid for 1 minute in sequential order. Thereafter, a dehydration process was performed, and then the tissue was covered with a cover glass and observed under a microscope (Carl Zeiss Vision). In order to observe whether a phenomenon of pulmonary fibrosis of vascular endothelial cells is shown as the symptom of pulmonary fibrosis occurred after radiotherapy, the site of the lung of a C57BL/6 mouse was topically irradiated with an intensity of 90 Gy. After excising the lung from the mouse, the cross-section of the aorta of the lung tissue was stained by a trichrome staining method in order to identify collagen which is a protein shown upon fibrosis of the pulmonary vascular endothelial cells. […]

[4] = tested on: γH2AX in irradiated lung tissue; assay: Inhibition test on DNA damage caused by radiation (γH2AX immunostaining); type: in vivo, mouse; settings: 10 mg/kg one hour prior to 90 Gy lung irradiation; compared to non-treatment group (IR)
Procedure: The tissue of a mouse was fixed with 10% neutral formalin for one day, and a paraffin section was made. In order to remove paraffin around the tissue, the tissue was immersed in a xylene solution and 100%, 95%, 90%, and 70% ethanol solutions in sequential order. For the antigen activation of the tissue, the tissue was immersed in a 0.1 M citric acid solution (pH 6.0) and boiled for 30 minutes, and then reacted with 3% hydrogen peroxide for 15 minutes. The tissue was allowed to react with γH2AX (abcam), which was diluted in 1:200 ratio in a PBS solution (including phosphate based saline buffer and 0.1% triton x-100), at 4° C. for 16 hours. After washing the tissue with PBS, a secondary antibody conjugated with biotin was diluted in 1:200 ratio and reacted with the tissue at room temperature for 30 minutes. After reacting the tissue with ABC (Avidin biotin complex) at room temperature for 30 minutes and color-developing 3,3′-DAB (3,3′-diaminobenzidine), the tissue was counterstained with hematoxylin. Subsequently, the tissue was immersed in 50%, 70%, 90%, 95%, and 100% ethanol solutions and a xylene solution in sequential order, followed by dropping one drop of a mounting solution. Then, the tissue was covered with a cover slide and observed under a microscope (Carl Zeiss Vision). […]

[5] = tested on: lung tissue of bleomycin-injected mouse; assay: Inhibition test on tissue damage caused by bleomycin (bleomycin-induced pulmonary fibrosis model); type: in vivo; settings: 10 mg/kg intraperitoneally one hour before 1.25 U/kg bleomycin into the airway; three weeks after injection; compared to non-treatment group
Procedure: The tissue of a mouse was fixed with 10% neutral formalin for one day, and a paraffin section was made. In order to remove the paraffin around the tissue, the tissue was allowed to react with a xylene solution and 95%, 90%, and 70% ethanol solutions in sequential order for 5 minutes each, and then immersed in a hematoxylin solution for 1 minute to stain the nuclei and then washed under running water for 10 minutes. Thereafter, the cytoplasm was stained by immersing the tissue in an eosin solution for 30 seconds. Thereafter, the tissue was immersed in 50%, 70%, 90%, and 95% ethanol solutions, and a xylene solution in sequential order, followed by dropping one drop of a mounting solution. Then, the tissue was covered with a cover slide and observed under a microscope (Carl Zeiss Vision). The tissue of a mouse was fixed with 10% neutral formalin for one day, and a paraffin section was made. In order to remove paraffin around the tissue, the tissue was allowed to react with a xylene solution and 95%, 90%, and 70% ethanol solutions in sequential order for 5 minutes each. For the antigen activation of the tissue, the tissue was immersed in a 0.1 M citric acid solution (pH 6.0) and then boiled for 20 minutes. […]

Which results are given for `COc1cc2ncnc(Nc3ccc(F)c(Cl)c3)c2cc1NC(=O)/C=C/CN1CCCCC1` [Dacomitinib, (2E)-N-{4-[(3-chloro-4-fluorophenyl)amino]-7-methoxy-6-quinazolinyl}-4-(1-piperidinyl)-2-but enamide]?
infiltration of the inflammatory cells and the fibrotic matrix around blood vessels [1]: remarkably reduced; thickness of the vascular wall [2]: remarkably reduced; blue sites of collagen (protein associated with pulmonary fibrosis), trichrome staining [3]: remarkably reduced; expression of γH2AX according to the DNA damage [4]: remarkably reduced; pathological characteristics such as infiltration of inflammatory cells, fibrous nodules, interstitial thickening [5]: remarkably inhibited
